This is an account of results in patent US11426472B2, “Fibroblast activation protein (FAP) targeted imaging and therapy in fibrosis” (Purdue Research Foundation, priority 2018, dated 2022).

The target of one data set is T1, mouse FAP (Mus musculus, UniProt P97321).
T1 construct: NIH-3T3 cells were induced with TGFβ to express FAP; endogenous in cells; host or cells: NIH-3T3 mouse fibroblasts induced with TGFβ
T1 sequence (P97321 1-761): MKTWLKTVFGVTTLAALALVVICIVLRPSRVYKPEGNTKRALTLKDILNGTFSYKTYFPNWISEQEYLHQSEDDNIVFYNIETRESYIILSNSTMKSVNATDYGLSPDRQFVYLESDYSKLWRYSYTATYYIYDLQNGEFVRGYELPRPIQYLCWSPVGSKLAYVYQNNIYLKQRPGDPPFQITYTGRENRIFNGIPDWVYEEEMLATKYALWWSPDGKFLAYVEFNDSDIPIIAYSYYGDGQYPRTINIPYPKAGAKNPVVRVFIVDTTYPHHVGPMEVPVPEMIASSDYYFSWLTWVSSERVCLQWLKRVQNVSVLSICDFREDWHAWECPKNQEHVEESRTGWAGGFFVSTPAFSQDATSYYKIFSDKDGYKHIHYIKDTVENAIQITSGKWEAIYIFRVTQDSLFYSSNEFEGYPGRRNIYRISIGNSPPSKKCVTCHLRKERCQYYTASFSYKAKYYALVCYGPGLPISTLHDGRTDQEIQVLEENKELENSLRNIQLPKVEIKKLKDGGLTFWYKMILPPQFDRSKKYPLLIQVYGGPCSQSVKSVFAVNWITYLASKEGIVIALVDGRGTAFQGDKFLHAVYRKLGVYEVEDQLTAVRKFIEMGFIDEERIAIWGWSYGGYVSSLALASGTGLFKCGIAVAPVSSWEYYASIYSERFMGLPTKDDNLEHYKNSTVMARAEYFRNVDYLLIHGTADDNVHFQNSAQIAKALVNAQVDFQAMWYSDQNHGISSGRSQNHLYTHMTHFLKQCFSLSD
The experiment in a line: Binding of FAPL_FITC to TGFβ-induced NIH-3T3 cells. Type of data set: cell-based. From the text: FAPL-FITC targets mouse FAP in mouse fibroblast cells. Fluorescence binding affinity study of FAPL_FITC in HLF-hFAP cells. (C) Binding of FAPL_FITC to TGFb induced mouse NIH-3T3 cell line.
In this Example, we have shown that FAPL_FITC can recognize mouse FAP. Briefly, NIH-3T3 cells were induced with TGFβ to express FAP (mimicking the pathogenesis of fibrosis in mice). FAPL_FITC can recognize almost 98% of the cell population that binds to a specific monoclonal antibody against mouse FAP.

The target in another data set is T2, human FAP (Homo sapiens, UniProt Q12884).
T2 construct: expressed in transfected cells; host or cells: HLF1 human lung fibroblast cell line transfected with FAP (HLF1-hFAP)
T2 sequence (Q12884 1-760): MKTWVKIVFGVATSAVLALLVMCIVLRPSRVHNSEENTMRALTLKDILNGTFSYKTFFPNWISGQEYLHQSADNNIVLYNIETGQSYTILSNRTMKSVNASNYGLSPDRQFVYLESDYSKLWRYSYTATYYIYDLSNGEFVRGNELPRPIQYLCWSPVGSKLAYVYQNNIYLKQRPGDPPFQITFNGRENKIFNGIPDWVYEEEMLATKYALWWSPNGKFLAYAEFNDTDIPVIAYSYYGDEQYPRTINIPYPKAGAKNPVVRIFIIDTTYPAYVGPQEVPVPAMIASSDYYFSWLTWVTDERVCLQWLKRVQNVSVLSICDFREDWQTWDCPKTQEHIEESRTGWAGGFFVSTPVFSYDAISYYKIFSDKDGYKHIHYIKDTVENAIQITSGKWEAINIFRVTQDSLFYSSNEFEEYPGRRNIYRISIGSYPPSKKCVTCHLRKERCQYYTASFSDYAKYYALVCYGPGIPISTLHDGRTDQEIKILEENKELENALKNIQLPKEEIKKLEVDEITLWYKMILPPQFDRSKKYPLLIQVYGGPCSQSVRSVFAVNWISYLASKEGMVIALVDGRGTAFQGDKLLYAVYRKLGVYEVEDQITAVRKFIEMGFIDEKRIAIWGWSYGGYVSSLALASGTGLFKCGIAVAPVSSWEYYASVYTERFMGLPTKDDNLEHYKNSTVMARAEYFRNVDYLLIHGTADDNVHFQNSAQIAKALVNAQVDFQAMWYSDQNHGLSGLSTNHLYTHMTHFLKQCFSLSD
Kind of data set: Live cell imaging of FAP-FITC binding and internalization in HLF1-hFAP cells. As to conditions: 10 nM. Type of data set: cell-based. The protocol:
FAPL-FITC targets human FAP in HLF1 cells. A) Live cell imaging of FAPL-FITC internalization. confocal microscopy images of HLF1-hFAP cells incubated with FAPL-FITC (10 nM), FAP staining is shown in green. Spatial localization of FAPL-FITC in HLF1-hFAP cell line at 0 min (a), and at 30 min (d). Colocalization of FAP and endosomes: HLF1-hFAP cells incubated with FAPL-FITC followed by staining for endosomes (Rab7a-RFP; red) and nucleus (DRAQ5; blue). The merge of the 3 images is shown on the right (c, and f). Yellow indicated colocalization of FAP with endosomal markers.
HLF1-hFAP cells were seeded in the glass-bottom dish and incubated with adequate amount of endosomes tracker (Rab7a-RFP, ThermoFisher) for overnight. Then cells were incubated with FAP-FITC (10 nM) for 1 hour at 4° C. Followed by staining with […] DRAQ5 nucleus dye (ThermoFisher) and 3 times of PBS washes, spatial localization of FAP-FITC was monitor at given time under ambient temperature by confocal microscope (FV 1000, Olympus). Confocal images were further processed by FV10-ASW, Olympus software.

Data set [1] deals with HLF-1 fibroblasts. The experiment in a line: Secreted collagen in HLF1 cells (Sirius Red staining). It is filed as cell-based, human. As for the experimental part: (§1) PI3KI1 inhibits Akt phosphorylation, proliferation, collagen secretion and collagen gel contraction in HLF-1 fibroblasts. (A) PI3KI1 structure. (B) Confluent HLF-1 fibroblasts were stimulated with TGFβ (1 ng/mL) with indicated PI3KI1 or OMIPALISIB and lysates collected for Western blotting. […] Collagen 1 and αSMA expression was suppressed by 100 nM PI3KI1, but pSMAD2 was not affected by PI3K inhibitors. (C) MTT assay and Caspase 3 and 7 activity (Supplementary data) show PI3KI1 inhibited HLF-1 proliferation at >100 nM. (D) HLF-1 fibroblasts were stimulated with TGFβ (1 ng/mL) for 3 days and level of secreted collagen in culture medium was determined by Sirius Red staining. […] Data are analysis by t-test; *p<0.05, **p<0.01.
Confluent HLF1 cells were seeded in DMEM medium containing 10% FBS and then 0.4% serum starvation overnight before stimulation of collagen secretion. TGFb1 (0.1 ng/ml) were added into cells with or without PI3K inhibitors. At 2 days post co-incubation, culture medium was collected for determination of total secreted collagen level. Total collagen level was determined by Sirius Red Total Collagen Detection Kit (Chondrex, Inc). Basically, concentrated sample incubated with […] of Sirius Red Solution with for 20 minutes at room temperature. […] Add […] of Extraction Buffer to the Sirius Red stained pellet and read the OD at 510-550 nm.

For a further data set, the system named is IPF fibroblasts. The experiment in a line: TGFβ-induced Collagen I in IPF patient fibroblasts (molecular crowding assay, high content imaging). It is filed as cell-based, human. The note with it: for TGFβ-induced collagen production/secretion: IPF patient fibroblasts, TGFβ 1 ng/mL, 48 h. The protocol:
PI3KI1 and PI3KI1-FAPL suppressed TGFβ-induced collagen production in IPF fibroblasts. (B) Confluent IPF fibroblasts were stimulated for 48 h with TGFβ (1 ng/mL) with increasing concentrations of OMIPALISIB or PI3KI1 or PI3KI1-FAPL and Collagen I expression was assayed by molecular crowding assay with high content image analysis. Data are expressed as relative fluorescent intensity over TGFβ treated IPF fibroblasts (C) and cell counts obtained from DAPI counterstaining (D).

Data set [2] relates to bleomycin-induced lung fibrosis. The experiment in a line: Therapy in bleomycin-induced lung fibrosis model (survival, hydroxyproline). Type of data set: in vivo, mouse. The note with it: for survival: bleomycin-induced mice versus untreated/PBS control; for hydroxyproline/collagen in lung: bleomycin-induced mice, day 21, versus untreated/PBS control. From the text: Therapy with FAP-a targeted Pi3K inhibitor in bleomycin treated mice. (A) Schematic representation of the experimental protocol for induction, treatment and examination of pulmonary fibrosis in a mouse model. (B) Survival probability of the FAPL_PI3KI1 treated mice over the saline control. (C) Hydroxyproline content (ug/lung) of control (saline), bleomycin treated with and without FAPL_PI3KI1 treatment at day 21. (D) Body weight change
8 to 10-week old C57BL/6-NCrl (Strain Code: 027) male mice (Charles River) were anesthetized (mixture of xylazine/ketamine), followed by a single intratracheal injection of freshly prepared 0.75 mg/Kg of bleomycin sulfate (Cayman Chemicals, Cat N13877) in 50 μL of sterile phosphate-buffered saline (PBS). Control mice were injected with 50 μL of sterile PBS. Body weights were monitored throughout the study. To access the FAP expression and fibrosis in the longitudinal study the lungs were harvested at Days 7, 14 and 21 post-bleomycin instillation. For the therapy with FAP-PI3K inhibitor, same procedure was carried out to administer bleomycin and the lungs were harvested at Day 21 to access the therapeutic efficacy (Day 0 was accounted as the day of bleomycin administration).
Total lung collagen was determined by analysis of hydroxyproline as previously described.^30 The right lung was consistently dedicated for this assay to allow comparison. Briefly, harvested right lung was homogenized in PBS (PH 7.4), digested with 12N HCl at 120° C. for 3 hr. Citrate/acetate buffer (PH 6.0) and Chloramine-T solution were added at room temperature for 20 minutes and the samples were incubated with Ehrlich's solution for 15 min at 65° C. Samples were cooled to room temperature and read at 550 nm. Hydroxyproline standards (Sigma, MO) at concentrations between 0 to 100 μg/ml were used to construct a standard curve.

In the next data set the test system is PI-3 Kinase signaling. The note with it: IPF-derived lung fibroblasts; cited from earlier work.
The next data set has as its system AKT phosphorylation. The experiment in a line: Western blot of TGFβ-stimulated HLF-1 fibroblasts: Akt phosphorylation. Type of data set: cell-based, human. The protocol: as §1
(§2) Serum starved confluent HLF1 cells were co-incubated in medium containing 1 ng/ml TGFb1 with or without designate concentrations of PI3K inhibitors for 24 hours. Cells were harvested and lysed for Western blot analysis. Following sodium dodecyl sulphate polyacrylamide gel electrophoresis and blocking, membranes were incubated with antibodies to detect pSMAD2^Ser465/467 (#3101, Cell Signalling Technology), or pAkt^Ser473 (#4060, Cell signalling Technology), and signals visualized with ECL Western Blotting Detection Reagents (GE Healthcare). […]
For orientation: A western blot detects proteins with antibodies after separation by electrophoresis.

Data set [3] relates to Collagen 1 and αSMA expression. The experiment in a line: Western blot of TGFβ-stimulated HLF-1 fibroblasts: Collagen 1 and αSMA expression. As to conditions: 100 nM, HLF-1, TGFβ 1 ng/mL. Type of data set: cell-based, human. As for the experimental part: as §1, §2
For data set [4], the system named is HLF-1 fibroblasts. The experiment in a line: MTT assay and Caspase 3 and 7 activity in HLF-1. Type of data set: cell-based, human. The protocol: as §1
FIG. 18. Caspase 3 and 7 activity show PI3KI1 inhibited HLF-1 proliferation at >100 nM.
In general terms: Formazan colour is commonly taken as a measure of viable cells.

For data set [5], the system named is HLF-1 fibroblasts. The experiment in a line: Collagen gel contraction assay. It is filed as cell-based, human. The note with it: 100 nM for 12 hours. As for the experimental part: as §1

Structures are written as SMILES.

As to `C[C@H](NC(=O)c1ccnc(CNC(=O)CCC(=O)NC(CSC2CC(=O)N(c3ccc(C4c5ccc(O)cc5OC5=CC(=O)C=CC54)c(C(=O)O)c3)C2=O)C(=O)O)c1)C(=O)N1CC(F)(F)C[C@H]1C#N` (some centres unmarked) [FAPL-FITC], the “cell population recognized among cells binding a monoclonal antibody against mouse FAP” value on mouse FAP is recorded as about 98%. In addition, the “binding to hFAP-HLF1 cell line” value at human FAP (confocal microscopy and flow cytometry) is reported as “binds well with good competition”. Also, the internalization entry at human FAP (HLF1-hFAP cells) is listed as “internalized upon receptor engagement”.

In the case of `COc1ncc(-c2ccc3nccc(-c4ccc(COC(=O)OCCSSCC(NC(=O)CCC(=O)NCc5cc(C(=O)N[C@@H](C)C(=O)N6CC(F)(F)C[C@H]6C#N)ccn5)C(=O)O)nc4)c3c2)cc1NS(=O)(=O)c1ccc(F)cc1F` (some centres unmarked) [FAPL-PI3KI1], the IC50 was under 10 nM with HLF-1 fibroblasts [1] (HLF1-hFAP cell line, read-out: IC50 of collagen secretion/synthesis) and under 10 nM in the data set with IPF fibroblasts (IPF patient cell lines, read-out: IC50 of collagen secretion/synthesis). The TGFβ-induced collagen production/secretion result in the data set on IPF fibroblasts (listed as FAP_PI3KI1) is “suppresses TGFβ induced collagen secretion at low drug concentration, better than free PI3KI1 and free GSK drug OMIPALISIB”; in the data set with IPF fibroblasts (listed as PI3KI1-FAPL) it was “suppressed”. Moreover, the survival result in data set [2] is “increased survival”; in data set [2] (listed as FAPL_PI3KI-SUH), “increased survival rate”. Further, the hydroxyproline/collagen in lung entry in [2] is “decreased hydroxyproline/collagen production”; in [2] (listed as FAPL_PI3KI-SUH), “reduction of hydroxyproline”.

`COc1ncc(-c2ccc3nccc(-c4ccnnc4)c3c2)cc1NS(=O)(=O)c1ccc(F)cc1F` [OMIPALISIB]: in the data set on PI-3 Kinase signaling, the “PI-3 Kinase signaling and functional responses” value is “inhibited PI-3 Kinase signaling and functional responses”.

As for `COc1ncc(-c2ccc3nccc(-c4ccc(CO)nc4)c3c2)cc1NS(=O)(=O)c1ccc(F)cc1F` [PI3KI1], in the data set with AKT phosphorylation (HLF-1), the “Akt phosphorylation inhibition compared with OMIPALISIB” value is recorded as “better than its GSK counterpart OMIPALISIB”. The IC50 in the data set with AKT phosphorylation (Homo sapiens, HLF1, HLF-1, TGF-β 1 ng/ml for 24 hr, read-out: IC50 of TGF-β induced AKT phosphorylation) was 1.4 nM. For the same compound, in data set [3], the “Collagen 1 and αSMA expression” value is “suppressed”. Further, the toxicity result in the data set with HLF-1 fibroblasts [4] (HLF-1) was “does not have toxicity”. Besides, the “concentration at which HLF-1 proliferation is inhibited” value in the data set on HLF-1 fibroblasts [4] (MTT assay and Caspase 3 and 7 activity) is recorded as over 100 nM. Besides, the collagen secretion result in the data set with HLF-1 fibroblasts [1] (HLF-1 cell line, TGFβ stimulated) is reported as “suppresses collagen secretion”. Besides, the “fibroblast reorganization and contraction (collagen gel contraction)” value in the data set on HLF-1 fibroblasts [5] was “disrupted fibroblasts reorganization and contraction”. The TGFβ-induced collagen production/secretion result in the data set with IPF fibroblasts is on record as “suppressed”.
